Measured values as given in BindingDB's records for doi:10.7270/Q2VT1QQ4 (Burnham Center For Chemical Genomics, 2012).

Molecular target: T1, Xylosyl- and glucuronyltransferase LARGE1 (Homo sapiens, UniProt O95461)
T1 sequence (O95461 whole entry): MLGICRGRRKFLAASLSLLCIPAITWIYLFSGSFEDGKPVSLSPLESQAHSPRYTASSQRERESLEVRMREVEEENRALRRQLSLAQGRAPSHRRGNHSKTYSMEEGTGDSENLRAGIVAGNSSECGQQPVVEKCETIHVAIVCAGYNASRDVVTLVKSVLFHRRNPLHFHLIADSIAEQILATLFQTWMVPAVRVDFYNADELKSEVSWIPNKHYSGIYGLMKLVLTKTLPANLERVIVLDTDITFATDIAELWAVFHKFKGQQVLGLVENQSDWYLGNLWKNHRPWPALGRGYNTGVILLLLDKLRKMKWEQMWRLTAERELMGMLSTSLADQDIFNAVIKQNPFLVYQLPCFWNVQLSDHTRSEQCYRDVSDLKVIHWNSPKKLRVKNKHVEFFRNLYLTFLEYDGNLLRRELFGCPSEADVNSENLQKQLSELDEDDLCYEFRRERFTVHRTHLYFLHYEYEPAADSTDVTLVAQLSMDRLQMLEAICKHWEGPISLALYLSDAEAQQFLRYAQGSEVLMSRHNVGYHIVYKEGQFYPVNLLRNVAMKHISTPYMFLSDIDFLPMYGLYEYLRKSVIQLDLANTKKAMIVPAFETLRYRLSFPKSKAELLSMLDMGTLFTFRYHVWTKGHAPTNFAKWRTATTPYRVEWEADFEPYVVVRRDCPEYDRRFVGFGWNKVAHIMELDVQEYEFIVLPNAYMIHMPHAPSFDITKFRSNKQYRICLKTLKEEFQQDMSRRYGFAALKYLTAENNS

## Oc1c(Cl)c(N=Cc2ccco2)c(O)c2ccccc12 [2-chloranyl-3-(furan-2-ylmethylamino)naphthalene-1,4-dione]
  EC50: 4.97 µM
